Here are results for 3 molecules from ChEMBL document CHEMBL1155556, “New macrolactins from a marine Bacillus sp. Sc026” (2000).

What all share (format): functional
Conditions in all cases: read-out: IZ

The subject of assay [1] is Bacillus subtilis. The assay is described as follows: Antibacterial activity against Bacillus subtilis ATCC 6633 at 100 ug/disk by agar diffusion assay. In general terms: In agar diffusion tests the substance spreads into inoculated agar from a disc or well.
Assay [2] concerns Staphylococcus aureus. The experiment in a line: Antibacterial activity against Staphylococcus aureus ATCC 25923 at 100 ug/disk by agar diffusion assay.
Assay [3] concerns Bacillus subtilis. The experiment in a line: Antibacterial activity against Bacillus subtilis ATCC 6633 at 50 ug/disk by agar diffusion assay.
The test system of assay [4] is Staphylococcus aureus. The experiment in a line: Antibacterial activity against Staphylococcus aureus ATCC 25923 at 50 ug/disk by agar diffusion assay.

On to `C[C@@H]1CCC/C=C/CCC(=O)C[C@@H](O)C/C=C\C=C\[C@@H](OC(=O)CCC(=O)O)C/C=C/C=C\C(=O)O1`, for which the zone of inhibition at 100 µg/disc with Bacillus subtilis [1] amounted to 9 mm; with Staphylococcus aureus [2], 8 mm.
For `C[C@@H]1CCC/C=C/C=C/[C@H](O)C[C@@H](O)C/C=C\C=C\[C@@H](OC(=O)CCC(=O)O)C/C=C/C=C\C(=O)O1` [7-O-SUCCINYL MACROLACTIN A], the zone of inhibition at 50 µg/disc is 10 mm in the assay with Bacillus subtilis [3] and 24 mm with Staphylococcus aureus [4].
For the molecule `C[C@@H]1CCC/C=C/CCC(=O)C[C@@H](O)C/C=C\C=C\[C@@H](O)C/C=C/C=C\C(=O)O1` [MACROLACTIN F], the zone of inhibition at 100 µg/disc in the assay with Bacillus subtilis [1] amounted to 8 mm; with Staphylococcus aureus [2] it was 28 mm.
